Reference: patent US5534416A, “Fluorescent viability assay using cyclic-substituted unsymmetrical cyanine dyes” (Molecular Probes, Inc., priority 1993, dated 1996)

Key:
[1] = system: nucleic acids; settings: cited from earlier work
[2] = system: NIH/3T3 mouse fibroblast cell line; assay: Live/dead staining of fibroblasts, fluorescence microscopy; assay type: cell-based
Procedure: NIH/3T3 mouse fibroblast cell line is obtained from American Type Culture Collection Co., Rockville, Md. The cells are maintained in a humidified atmosphere of 5% CO2 in Dulbecco's modified Eagle's medium (DMEM) supplemented with 10% calf serum, 50 μg/mL gentamicin, 300 μg/mL L-glutamine and 10 mM HEPES pH 7.4. Cells are subcultured every 3 days by trypsinization using 0.05% trypsin and 0.02% EDTA in a Ca- and Mg-free saline solution (Gibco BRL, Gaithersburg, Md.).
A 5 μM staining solution of the dye 61 is prepared by dilution of 25 μL of 2 mM stock solution into 10 mL DMEM. A 2 μM staining solution of ethidium homodimer-1 is prepared by dilution of 2 μL of 10 mM stock solution into 10 mL phosphate buffered saline (PBS).
The 3T3 cells are stained with the 5 μM solution of dye 61, and then incubated in the dark at room temperature for 30 minutes. The cells are then […] with the 2 μM ethidium homodimer-1 solution.
The 3T3 cells are then observed a long-pass fluorescein filter to view dye 61 fluorescence and a long-pass Texas Red® filter to view the emission of ethidium homodimer. A Nikon fluorescence microscope equipped with a 40× objective is used for inspection and photography.

[3] = system: calf thymus DNA; settings: Table 5; bound to excess calf thymus DNA (50 bp/dye); cited from earlier work
[4] = system: M. luteus; assay: Fluorescence per cell, stained bacteria (microtiter plate reader); assay type: cell-based, Micrococcus luteus; settings: optimal dye concentration, corrected for cell number
Procedure: (§1) 1. Measured in a fluorescence microtiter plate reader with extraction and
(§2) emission filters at 485+/-10 and 530+/-12, respectively. Fluorescence dat
(§3) are corrected for cell number; but are not corrected for cell volume or
(§4) 2. Optimal dye concentrations determined as in Example 3.
(§5) 3. Suspension concentrations as used for Example 3.
(§6) A culture of E. coli is washed by centrifugation and resuspended in water to its original volume. Using Corning 96-well microtiter plates with flat bottoms, 150 μL volumes of suspension are loaded per well. A single well of sterile water is the well background standard. Using a Dynatech MR600 microplate reader equipped with a 410 nm filter, absorbance is determined for the initial volumes of suspension. The suspension is diluted seven times by serial ten-fold dilutions in water, 150 μL of suspension per well, and the absorbance measured for each dilution. Following the absorbance measurements, each dilution loaded into wells is further diluted 1:10 and plated in duplicate on nutrient growth agar. The colonies are counted and expressed as colony forming units per milliliter (cfu/mL). Using the turbidity of the dilution in the microtiter plate, the suspension is diluted to a density of about 1×10^9 cfu/mL.
(§7) The bacteria suspension, adjusted to a known density as described above, is diluted seven times by serial ten-fold dilutions in water; 150 μL of suspension per well. Three-fold serial dilutions of dye are used (30-0.04 μM); 50 μL of dye at 4× final concentration. Using Corning 96-well microtiter flat-bottom plates, a matrix is set up whereby the cell concentration decreases across the plate and the dye concentration decreases down the plate, final volume per well is 200 μL. The top row and first column are reserved for the control, sterile water. The plate is incubated at 37° C. for 30 minutes, then read in a Millipore Cytofluor™ 2350 96-well fluorescence microplate reader at a fixed excitation of 485+/-10 nm and each of three emission wavelengths, 530+/-12, 620+/-20, or 645+/-20 nm. The results determine the best dye range (30-1 μM) and the best cell concentrations (concentrated through first three ten-fold dilutions) for optimal dye loading. […] Using the four dye dilutions and the four bacterial dilutions, many bacteria and dyes can be assayed quickly. The data collected allow the determination of optimal dye and cell concentration required for maximal fluorescence intensity per cell.

[5] = system: S. pyogenes; assay: as above; assay type: cell-based, Streptococcus pyogenes; settings: optimal dye concentration, corrected for cell number
Procedure: as §1, §2, §3, §4, §5, §6, §7

[6] = system: P. aeruginosa; assay: as above; assay type: cell-based, Pseudomonas aeruginosa; settings: optimal dye concentration, corrected for cell number
Procedure: as §1, §2, §3, §4, §5, §6, §7

[7] = system: DNA; assay: Quantum yield of dye on DNA versus fluorescein; assay type: physicochemical; settings: for Normalized QY: QY divided by QY of thiazole orange; for QY (DNA): Table 2, Tris buffered saline pH 10, fluorescein assumed 0.92; for QY: Table 7, on DNA, fluorescein reference
Source text: ^ Quantum yield (QY) of dye on DNA (standard solution in Tris buffere
saline adjusted to pH 10) in comparison with fluorescein, which is assume
to have a quantum yield of 0.92 under the test conditions.
(§8) Factors such as degree of fluorescence enhancement with nucleic acid binding, self quenching, molar extinction coefficient, membrane permeability, intracellular partitioning, nucleic acid binding affinity, and quantum yield contribute to the overall fluorescence of nucleic acid stains in cells. Enhanced cell fluorescence obtained with Dye I is related to unexpected properties other than quantum yield alone. Quantum yield is determined as described above (foot note to Table 2). Normalized quantum yield is determined to illustrate the fold-change in quantum yield of Dye I compared with thiazole orange, a related cell-permeant dye. The normalized fluorescence values represent the quantum yield of each dye divided by the quantum yield of thiazole orange. Fluorescence per cell is also scaled to thiazole orange values for both E. coli and S. aureus to allow direct comparison between relative (normalized) quantum yield and relative (normalized) fluorescence/cell.

[8] = system: nucleic acids; assay: Excitation/emission maxima of dyes complexed with nucleic acids; assay type: physicochemical; set-up: key: wavelength in nm; settings: Table 2; dye complexed with nucleic acids
Source text: Dye I is lightly colored and is virtually non-fluorescent when diluted in aqueous solution according to the method of the invention. Dye I is highly membrane-permeant and labels all cells, whether live or dead. When Dye I binds with intracellular nucleic acid polymers such as DNA and RNA, the resultant dye-nucleic acid complex becomes extremely fluorescent upon illumination. The quantum yield of the preferred Dye I/DNA complex is greater than 0.02, typically greater than 0.1, preferably greater than 0.2, and more preferably greater than 0.3. Typically, Dye I combines with intracellular nucleic acids to give a green or red fluorescence. When excited at a wavelength between about 300 nm and about 500 nm, the dyes complexed with nucleic acids have an emission maximum between about 500 and about 610 nm (see Table 2). Preferably, Dye I complexed with nucleic acids has an emission maximum of between about 500 nm and about 535 nm, resulting in a true green fluorescent signal in cells of the sample where Dye I is present alone.

[9] = system: K. pneumonia; assay: Fluorescence per cell, stained bacteria (microtiter plate reader); assay type: cell-based, Klebsiella pneumonia; settings: optimal dye concentration, corrected for cell number
Procedure: as §1, §2, §3, §4, §5, §6, §7

[10] = system: S. sonnei; assay: as above; assay type: cell-based, Shigella sonnei; settings: optimal dye concentration, corrected for cell number
Procedure: as §1, §2, §3, §4, §5, §6, §7

[11] = system: E. coli; assay: as above; assay type: cell-based, Escherichia coli; settings: for Fluorescence/Cell (ex 485/em 530): E. coli, optimal dye concentration, corrected for cell number; for Normalized Fluorescence/cell (ex 485 nm/em 530 nm), Escherichia coli: scaled to thiazole orange
Source text: as §1, §2, §3, §4, §5, §8, §6, §7

[12] = system: B. cereus; assay: as above; assay type: cell-based, Bacillus cereus; settings: optimal dye concentration, corrected for cell number
Procedure: as §1, §2, §3, §4, §5, §6, §7

[13] = system: S. oranienburg; assay: as above; assay type: cell-based, Salmonella oranienburg; settings: optimal dye concentration, corrected for cell number
Procedure: as §1, §2, §3, §4, §5, §6, §7

[14] = system: S. aureus; assay: as above; assay type: cell-based, Staphylococcus aureus; settings: for Fluorescence/Cell (ex 485/em 530): S. aureus, optimal dye concentration, corrected for cell number; for Normalized Fluorescence/cell (ex 485 nm/em 530 nm), Staphylococcus aureus: scaled to thiazole orange
Source text: as §1, §2, §3, §4, §5, §8, §6, §7

[15] = system: Peripheral blood lymphocytes; assay: Live/dead staining of peripheral blood lymphocytes, fluorescence microscopy; assay type: cell-based, goat; settings: 1 μM dye 637, 1 μM calcein AM, 30 minutes each, either order
Procedure: Peripheral blood lymphocytes are isolated from whole goat blood using the standard ficoll density gradient protocol. The cells are incubated in saline buffer with coverslips coated with a cell adhesive. After attachment to the coverslip, the cells are incubated with either
a) 1 μM dye 637 for 30 minutes followed by washing, and subsequently incubating with 1 μM calcein AM for 30 minutes, or
b) as above but labeling first with calcein AM, and subsequently staining with dye 637.
After washing with saline, the stained cells are viewed through a long-pass fluorescein filter to view calcein fluorescence and a long-pass Texas Red® filter to view the emission of dye 637. A Nikon fluorescence microscope equipped with a 40× objective is used for inspection and photography.

[16] = system: prokaryotic microbes; settings: Kaneshiro et al. 1993; cited from earlier work
[17] = system: intact cells; settings: cited from earlier work

Row | Molecule | Fluorescence/Cell (ex 485/em 530) [4] | Fluorescence/Cell (ex 485/em 530) [5] | Fluorescence/Cell (ex 485/em 530) [6] | Normalized QY [7] | QY (DNA) [7] | QY [7] | EM max [8] | EX max [8] | Fluorescence/Cell (ex 485/em 530) [9] | Fluorescence/Cell (ex 485/em 530) [10] | Fluorescence/Cell (ex 485/em 530) [11] | Normalized Fluorescence/cell (ex 485 nm/em 530 nm), Escherichia coli [11] | Fluorescence/Cell (ex 485/em 530) [12] | Fluorescence/Cell (ex 485/em 530) [13] | Fluorescence/Cell (ex 485/em 530) [14] | Normalized Fluorescence/cell (ex 485 nm/em 530 nm), Staphylococcus aureus [14] | further results
1 | N=C(N)c1ccc(-c2cc3ccc(C(=N)N)cc3[nH]2)cc1 [DAPI] |  |  |  |  |  |  |  |  |  |  |  |  |  |  |  |  | excitability of nucleic acid complex ([1]; background): only excitable with UV light; spectral overlap of DNA-bound dye with cellular autofluorescence ([1]; background): overlap significantly with cellular autofluorescence
2 | Nc1ccc2c(c1)c(-c1ccccc1)[n+](CCCNCCNCCC[n+]1c(-c3ccccc3)c3cc(N)ccc3c3ccc(N)cc31)c1cc(N)ccc21 [Ethidium homodimer-1] |  |  |  |  |  |  |  |  |  |  |  |  |  |  |  |  | staining of dead cells ([2]; 2 μM): dead cells are stained fluorescent red; EM max [3]: 617 nm; EX max [3]: 528 nm
3 | CCOc1ccc(-c2nc3ccc(-c4nc5ccc(N6CCN(C)CC6)cc5[nH]4)cc3[nH]2)cc1 [Hoechst 33342] |  |  |  |  |  |  |  |  |  |  |  |  |  |  |  |  | excitability of nucleic acid complex ([1]; background): only excitable with UV light; spectral overlap of DNA-bound dye with cellular autofluorescence ([1]; background): overlap significantly with cellular autofluorescence
4 | CN1C(=Cc2cc[n+](C)c3ccccc23)Sc2ccccc21 [Thiazole Orange, reference compound] | 21 | < 0.01 | 2 | 1.0 | 0.18 | 0.18 | 530 | 510 | 3 | 1 | 2 | 1 | 51 | 1 | 3.2 | 1.0 | EM max [3]: 525 nm; EX max [3]: 509 nm
5 | CN(C)c1ccc2cc3ccc(N(C)C)cc3nc2c1 [acridine orange] |  |  |  |  |  |  |  |  |  |  |  |  |  |  |  |  | fluorescence enhancement upon binding to nucleic acids ([1]; background): about two-fold; background signal [1]: high background signal
6 | CCCCC1=CC(=Cc2sc3ccccc3[n+]2C)c2ccccc2N1c1ccccc1 [compound 61] | 49 | 0.01 | 5 | 2.5 | 0.46 | 0.46 | 527 | 500 | 10 | 6 | 10 | 5 | 196 | 10 | 15 | 4.7 | staining of live cells ([2]; 5 μM, 30 minutes, room temperature): live cells are stained fluorescent green
7 | CCCCC1=CC(=CC=Cc2oc3ccccc3[n+]2C)c2ccccc2N1c1ccccc1 [compound 637] |  |  |  |  | 0.28 |  | 622 | 601 |  |  |  |  |  |  |  |  | staining of dead cells [15]: stained only with dye 637 and do not exhibit green fluorescence
8 | C[n+]1c(C=C2C=CN(c3ccccc3)c3ccccc32)sc2ccccc21 [dye 63] | 33 | 0.01 | 3 | 1.3 | 0.24 | 0.24 | 531 | 514 | 5 | 3 | 6 | 3 | 93 | 4 | 5 | 1.6 | 
9 | Nc1ccc2c(c1)c(-c1ccccc1)[n+](CCCNCCNCCC[n+]1c(-c3ccccc3)c3cc(N)ccc3c3ccc(N)cc31)c1cc(N)ccc21 [ethidium homodimer] |  |  |  |  |  |  |  |  |  |  |  |  |  |  |  |  | usefulness with prokaryotic microbes versus eukaryotic microbes [16]: less useful with cells from prokaryotic microbes
10 | Calcein AM |  |  |  |  |  |  |  |  |  |  |  |  |  |  |  |  | usefulness with prokaryotic microbes versus eukaryotic microbes [16]: less useful with cells from prokaryotic microbes; T1/2 (time for half of dye to leak from intact cells) ([17]; 37° C., up to): up to 3 hour; Loading ([17]; in words): Easily loaded; Retention ([17]; in words): very good; pH sensitivity ([17]; in words): not very
